Measurements from patent US20210009613A1, “ARYLPHOSPHINE OXIDES FOR INHIBITING KINASE ACTIVITY” (Shenzhen TargetRx, Inc., priority 2017, published 2021).

Tests used:
I1171N/T/S = conditions: Crizotinib-resistant mutation; cited from earlier work
F1174C/V = conditions: Crizotinib-resistant mutation; cited from earlier work
G1202R = G1202R (Homo sapiens, UniProt Q9UM73, G1202R); conditions: Crizotinib-resistant mutation; cited from earlier work
Ba/F3 [EML4-ALK] [1] = assay: Cytotoxicity test (CellTiter-Glo), Ba/F3 [EML4-ALK]; type: cell-based; conditions: ratio of Ba/F3 IC50 values
Method: (§1) The in vitro anti-proliferative activity of the compounds of the present disclosure against three types of cells that are cultured in vitro was tested by CellTiter-Glo method.
(§2) Cell lines: Ba/F3 parental; Ba/F3 [EML4-ALK] (From WuXi PharmaTech) and Ba/F3 [EML4-ALK L1196M] (From WuXi PharmaTech); wherein, Ba/F3 parental was cultured in RPMI1640 medium containing 10 ng/ml IL-3, […], 100 U/ml penicillin, and 100 μg/ml streptomycin, Ba/F3 [EML4-ALK] and Ba/F3 [EML4-ALK L1196M] were cultured in RPMI1640 medium containing 10% fetal bovine serum, 100 U/ml penicillin, and 100 μg/ml streptomycin.
(§3) Reagents and materials: RPMI-1640 (GIBCO, Cat. No. A10491-01); fetal bovine serum (GIBCO, Cat. No. 10099141); 0.25% trypsin-EDTA (GIBCO, Cat. No. 25200); penicillin-streptomycin, liquid (GIBCO, Cat. No. 15140-122); DMSO (Sigma, Cat. No. D2650); CellTiter-Glo Test Kit (Promega, Cat. No. G7572), and 96-well plate (Corning, Cat. No. 3365).
(§4) Specific experimental procedures: • 1. The test compounds were dissolved in DMSO to make stock solutions and subjected to a series gradient dilution to give solutions with 10-fold working concentration. • 2. The cells in the logarithmic growth phase were diluted with the culture solution to adjust to the specific cell concentration, 90 μl of cell suspension was added to the 96-well plate to make the cell density reach the specified concentration. The plate was incubated in a incubator at 37° C., containing 5% carbon dioxide gas overnight. • 3. 10 μl drug solutions were added to each well of the 96-well plate inoculated with cells. 10 concentrations of the compounds were tested starting from the highest concentration of 20 μM with a 3-fold series gradient dilution in duplicate. • 4. After continuously cultured for 72 hours, the cells were detected by CellTiter-Glo for the cell viability. The dose-effect curve was made using GraphPad Prism software and IC50 was calculated.

Ba/F3 [EML4-ALK] [2] = target: T1, Ba/F3 [EML4-ALK] (Homo sapiens, UniProt Q9UM73); assay: as above; type: cell-based; conditions: 72 hours, CellTiter-Glo; read-out: IC50(nM) ALK (Ba/F3)
T1 construct: IC50(nM) ALK (Ba/F3); other: 72 hours, CellTiter-Glo; Ba/F3 [EML4-ALK]; fused on or other part: Q9HC35 (Echinoderm microtubule-associated protein-like 4)
T1 sequence (Q9UM73 whole entry, change not shown, the tested form may be a part): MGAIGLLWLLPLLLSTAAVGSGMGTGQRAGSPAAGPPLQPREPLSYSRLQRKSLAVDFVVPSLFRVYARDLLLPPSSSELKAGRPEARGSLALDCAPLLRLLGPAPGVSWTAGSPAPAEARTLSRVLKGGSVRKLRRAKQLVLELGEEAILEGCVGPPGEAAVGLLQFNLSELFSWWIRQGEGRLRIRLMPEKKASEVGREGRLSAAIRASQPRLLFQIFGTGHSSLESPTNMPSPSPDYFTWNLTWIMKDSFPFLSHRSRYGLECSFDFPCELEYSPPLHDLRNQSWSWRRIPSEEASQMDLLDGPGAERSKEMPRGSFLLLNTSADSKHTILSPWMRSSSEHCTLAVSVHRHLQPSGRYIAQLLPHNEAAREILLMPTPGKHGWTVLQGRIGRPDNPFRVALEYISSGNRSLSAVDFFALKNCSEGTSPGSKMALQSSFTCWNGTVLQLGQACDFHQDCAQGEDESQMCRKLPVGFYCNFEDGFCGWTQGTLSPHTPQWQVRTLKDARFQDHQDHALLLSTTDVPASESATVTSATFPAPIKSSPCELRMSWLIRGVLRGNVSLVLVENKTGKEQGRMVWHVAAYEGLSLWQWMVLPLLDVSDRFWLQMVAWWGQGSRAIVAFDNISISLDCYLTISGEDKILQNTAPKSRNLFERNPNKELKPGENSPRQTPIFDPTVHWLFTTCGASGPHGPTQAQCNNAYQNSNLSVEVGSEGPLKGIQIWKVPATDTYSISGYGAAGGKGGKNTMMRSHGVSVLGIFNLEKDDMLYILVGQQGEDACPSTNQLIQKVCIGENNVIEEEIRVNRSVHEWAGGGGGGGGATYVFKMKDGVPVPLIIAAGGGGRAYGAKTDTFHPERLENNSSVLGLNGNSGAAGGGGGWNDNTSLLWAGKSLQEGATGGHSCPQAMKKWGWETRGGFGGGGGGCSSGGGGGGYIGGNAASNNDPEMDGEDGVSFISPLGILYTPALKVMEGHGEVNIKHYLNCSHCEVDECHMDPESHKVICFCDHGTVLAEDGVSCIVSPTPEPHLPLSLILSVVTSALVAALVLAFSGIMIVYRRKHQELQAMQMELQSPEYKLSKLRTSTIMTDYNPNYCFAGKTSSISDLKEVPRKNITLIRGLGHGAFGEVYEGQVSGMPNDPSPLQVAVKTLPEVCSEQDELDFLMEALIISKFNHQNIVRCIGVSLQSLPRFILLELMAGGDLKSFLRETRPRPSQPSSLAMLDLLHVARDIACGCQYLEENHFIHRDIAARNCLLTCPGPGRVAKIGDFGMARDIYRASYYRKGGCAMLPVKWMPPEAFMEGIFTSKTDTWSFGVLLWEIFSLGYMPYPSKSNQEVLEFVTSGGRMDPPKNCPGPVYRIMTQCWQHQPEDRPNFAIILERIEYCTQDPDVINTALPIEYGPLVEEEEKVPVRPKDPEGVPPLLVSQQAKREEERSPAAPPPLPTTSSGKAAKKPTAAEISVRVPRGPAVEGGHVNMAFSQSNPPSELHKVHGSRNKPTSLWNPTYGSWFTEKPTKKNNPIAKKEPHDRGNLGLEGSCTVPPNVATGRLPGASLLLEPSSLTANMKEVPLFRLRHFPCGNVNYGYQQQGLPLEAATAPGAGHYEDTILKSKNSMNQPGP
Method: as §1, §2, §3, §4

Ba/F3 parental = assay: Cytotoxicity test (CellTiter-Glo), Ba/F3 parental; type: cell-based; conditions: Mus musculus, BaF3, 72 hours
Method: as §1, §2, §3, §4

ALK [WT] = ALK [WT] (Homo sapiens, UniProt Q9UM73); assay: Kinase inhibition assay, ALK [WT]; type: biochemical
Sequence of ALK [WT] (Q9UM73 19-1620): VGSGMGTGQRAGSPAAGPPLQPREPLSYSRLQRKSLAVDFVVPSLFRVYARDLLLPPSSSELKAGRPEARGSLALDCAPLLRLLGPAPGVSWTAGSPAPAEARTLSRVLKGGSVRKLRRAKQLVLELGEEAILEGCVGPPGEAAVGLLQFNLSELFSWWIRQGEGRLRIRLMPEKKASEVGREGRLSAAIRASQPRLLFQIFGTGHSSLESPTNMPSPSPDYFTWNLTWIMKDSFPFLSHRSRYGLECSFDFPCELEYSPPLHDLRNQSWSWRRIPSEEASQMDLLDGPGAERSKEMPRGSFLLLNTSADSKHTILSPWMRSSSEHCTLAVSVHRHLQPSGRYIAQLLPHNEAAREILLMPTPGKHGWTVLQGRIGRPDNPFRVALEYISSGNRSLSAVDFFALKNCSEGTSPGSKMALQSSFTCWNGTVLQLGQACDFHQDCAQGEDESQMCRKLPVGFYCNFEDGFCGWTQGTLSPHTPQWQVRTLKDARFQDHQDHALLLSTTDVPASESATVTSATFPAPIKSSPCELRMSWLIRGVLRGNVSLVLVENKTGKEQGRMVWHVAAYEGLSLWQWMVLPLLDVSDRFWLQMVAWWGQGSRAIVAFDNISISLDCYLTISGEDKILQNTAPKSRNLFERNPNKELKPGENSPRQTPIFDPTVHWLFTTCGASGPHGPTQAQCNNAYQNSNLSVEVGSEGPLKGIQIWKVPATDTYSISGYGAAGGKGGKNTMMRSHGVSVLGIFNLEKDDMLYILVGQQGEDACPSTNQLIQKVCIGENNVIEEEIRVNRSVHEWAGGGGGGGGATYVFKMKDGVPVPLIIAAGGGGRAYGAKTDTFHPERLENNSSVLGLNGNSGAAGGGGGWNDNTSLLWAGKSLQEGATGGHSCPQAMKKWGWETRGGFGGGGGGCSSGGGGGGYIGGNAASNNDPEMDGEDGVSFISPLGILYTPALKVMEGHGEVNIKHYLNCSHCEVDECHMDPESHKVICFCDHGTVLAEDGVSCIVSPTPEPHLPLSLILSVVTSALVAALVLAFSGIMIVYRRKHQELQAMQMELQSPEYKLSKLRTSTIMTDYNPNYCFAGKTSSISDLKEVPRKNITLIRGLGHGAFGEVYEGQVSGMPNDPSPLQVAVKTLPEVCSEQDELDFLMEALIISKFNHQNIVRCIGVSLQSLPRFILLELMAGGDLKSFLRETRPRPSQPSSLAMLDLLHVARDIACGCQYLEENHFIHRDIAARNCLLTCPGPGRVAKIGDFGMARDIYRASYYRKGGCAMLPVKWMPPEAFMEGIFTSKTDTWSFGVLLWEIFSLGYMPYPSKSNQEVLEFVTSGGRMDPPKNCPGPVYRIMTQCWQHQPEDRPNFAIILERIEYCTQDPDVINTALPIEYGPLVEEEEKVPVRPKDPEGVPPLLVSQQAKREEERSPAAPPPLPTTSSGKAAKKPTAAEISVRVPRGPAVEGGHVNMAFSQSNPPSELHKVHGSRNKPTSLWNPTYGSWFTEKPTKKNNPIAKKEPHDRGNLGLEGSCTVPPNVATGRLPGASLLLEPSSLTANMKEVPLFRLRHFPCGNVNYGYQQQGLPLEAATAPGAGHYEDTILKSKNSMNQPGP
Method: (§5) Compound preparation: The test compounds were dissolved in DMSO to make 20 mM stock solutions. The compounds were diluted in DMSO to 0.1 mM (a dilution with 100 times the final concentration) before use, and a 3-fold series gradient dilution with 11 concentrations was made. Dilutions with 4 times of the final concentration were prepared by diluting with buffer when dosing.
(§6) Kinase assay: after preparing the buffer solution, the enzyme was mixed with pre-diluted compounds with different concentrations, and placed at room temperature for 30 minutes in duplicate. The corresponding substrate and ATP were added thereto and reacted at room temperature for 60 minutes (both a negative and a positive control were set). After the reaction, antibody was added for detection, and after incubation at room temperature for 60 minutes, Evnvision detection was carried out, and data was collected. Data was analyzed and fit according to XLfit5 software. IC50 was calculated by the following formula: (IC50=[(ABS test-ABS begin)/(ABS control-ABS begin)]×100).

ALK [L1196M] = ALK [L1196M] (Homo sapiens, UniProt Q9UM73, L1196M); assay: Kinase inhibition assay, ALK [L1196M]; type: biochemical
Sequence of ALK [L1196M] (Q9UM73 19-1620 L1196M): as the sequence (Q9UM73 19-1620) above, with L1178M counted along it
Method: as §5, §6

Ba/F3 [EML4-ALK L1196M] [3] = assay: Cytotoxicity test (CellTiter-Glo), Ba/F3 [EML4-ALK L1196M]; type: cell-based; conditions: ratio of Ba/F3 IC50 values
Method: as §1, §2, §3, §4

Ba/F3 [EML4-ALK L1196M] [4] = target: T2, Ba/F3 [EML4-ALK L1196M] (Homo sapiens, UniProt Q9UM73, L1196M, cells depend on it); assay: as above; type: cell-based; conditions: 72 hours, CellTiter-Glo; read-out: IC50(nM) ALK[L1196M] (Ba/F3)
T2 construct: IC50(nM) ALK[L1196M]; (Ba/F3); other: 72 hours, CellTiter-Glo; Ba/F3 [EML4-ALK L1196M]; fused on or other part: Q9HC35 (Echinoderm microtubule-associated protein-like 4)
T2 sequence (Q9UM73 whole entry L1196M, the tested form may be a part): as the sequence (Q9UM73 whole entry, change not shown, the tested form may be a part) above, with L1196M counted along it
Method: as §1, §2, §3, §4

Sequence of G1202R (Q9UM73 19-1620 G1202R): as the sequence (Q9UM73 19-1620) above, with G1184R counted along it

SMILES	IC50 (ALK [WT]) [nM]	IC50 (ALK [L1196M]) [nM]	effect on I1171N/T/S (I1171N/T/S)	effect on F1174C/V (F1174C/V)	effect on G1202R (G1202R)	Selectivity parental/ALK (Ba/F3 [EML4-ALK] [1])	GI50 (Ba/F3 [EML4-ALK] [2]) [nM]	IC50 (Ba/F3 parental) [nM]	Selectivity parental/ALK[L1196M] (Ba/F3 [EML4-ALK L1196M] [3])	GI50 (Ba/F3 [EML4-ALK L1196M] [4]) [nM]
CCc1cc2c(cc1N1CCC(N3CCOCC3)CC1)C(C)(C)c1[nH]c3cc(C#N)ccc3c1C2=O [Alectinib]	–	–	no effect	–	–	–	–	–	–	–
Cc1cc(Nc2ncc(Cl)c(Nc3ccccc3S(=O)(=O)C(C)C)n2)c(OC(C)C)cc1C1CCNCC1 [Ceritinib]	–	–	–	no effect	neither of them has effect	–	–	–	–	–
COc1nc(N2CCN(C)CC2)ccc1Nc1nc(Nc2ccccc2P(C)(C)=O)c2cc[nH]c2n1 [Example 14, (2-((2-((2-methoxy-6-(4-methylpiperazin-1-yl)pyridin-3-yl)amino)-7H-pyrrolo[2,3-d]pyrimidin-4-yl)amino)phenyl)dimethylphosphine oxide]	≤ 5	≤ 5	–	–	–	50~100	≤ 50	400 to 1000	0~50	≤ 50
COc1nc(N(C)CCN(C)C)ccc1Nc1nc(Nc2ccccc2P(C)(C)=O)c2cc[nH]c2n1 [Example 15]	5 to 10	≤ 5	–	–	–	50~100	≤ 50	≥ 1000	0~50	50 to 100
COc1nc(N2CCC(N3CCN(C)CC3)CC2)ccc1Nc1nc(Nc2ccccc2P(C)(C)=O)c2cc[nH]c2n1 [Example 16, (2-((2-((2-methoxy-6-(4-(4-methylpiperazin-1-yl)piperidin-1-yl)pyridin-3-yl)amino)-7H-pyrrolo[2,3-d]pyrimidin-4-yl)amino)phenyl)dimethylphosphine oxide]	≤ 5	5 to 10	–	–	–	50~100	≤ 50	400 to 1000	0~50	50 to 100

Further lines, with some results ahead:

IC50 (ALK [WT]) [nM]	IC50 (ALK [L1196M]) [nM]	SMILES	effect on I1171N/T/S (I1171N/T/S)	effect on F1174C/V (F1174C/V)	effect on G1202R (G1202R)	Selectivity parental/ALK (Ba/F3 [EML4-ALK] [1])	GI50 (Ba/F3 [EML4-ALK] [2]) [nM]	IC50 (Ba/F3 parental) [nM]	Selectivity parental/ALK[L1196M] (Ba/F3 [EML4-ALK L1196M] [3])	GI50 (Ba/F3 [EML4-ALK L1196M] [4]) [nM]
10 to 50	50 to 100	CP(C)(=O)c1ccccc1Nc1nc(Nc2ccc(CCN)nc2OCC(F)(F)F)ncc1Cl [Example 17, (2-((2-((6-(2-aminoethyl)-2-(2,2,2-trifluoroethoxy)pyridin-3-yl)amino)-5-chloropyrimidin-4-yl)amino)phenyl)dimethylphosphine oxide]	–	–	–	50~100	100 to 400	≥ 1000	0~50	400 to 1000
10 to 50	50 to 100	CNCCc1ccc(Nc2ncc(Cl)c(Nc3ccccc3P(C)(C)=O)n2)c(OCC(F)(F)F)n1 [Example 18, (2-((5-chloro-2-((6-(2-(methylamino)ethyl)-2-(2,2,2-trifluoroethoxy)pyridin-3-yl)amino)pyrimidin-4-yl)amino)phenyl)dimethylphosphine oxide]	–	–	–	50~100	100 to 400	≥ 1000	0~50	100 to 400
10 to 50	50 to 100	CN(C)CCc1ccc(Nc2ncc(Cl)c(Nc3ccccc3P(C)(C)=O)n2)c(OCC(F)(F)F)n1 [Example 19, (2-((5-chloro-2-((6-(2-(dimethylamino)ethyl)-2-(2,2,2-trifluoroethoxy)pyridin-3-yl)amino)pyrimidin-4-yl)amino)phenyl)dimethylphosphine oxide]	–	–	–	100~200	50 to 100	≥ 1000	50~100	100 to 400
